The text below walks through data of patent publication US20080176905A1, “Polymorphic forms of rosiglitazone hydrobromide and processes for preparation thereof” (priority 2007, published 2008).

Structures are written as SMILES. Counter-ions that a name gives are not always drawn.

Data set [1] in a line: Crystalline stability of Form I under pressure, grinding and heating (XRD of resulting material).
The nature of data set [2]: Water content by Karl Fisher (KF) analysis. The following applies: for Water content, as measured by KF: general statement in description, hydrobromide. Format: physicochemical. An excerpt:
As used herein, the term “water content” refers to the content of water based upon the Loss on Drying method (the “LOD” method) as described in UPS 29-NF 24, official Aug. 1, 2006, Physical Test and Determinations, <731> LOSS ON DRYING or in Pharmacopeial Forum, Vol. 24, No. 1, p. 5438 (January-February 1998), the Karl Fisher assay for determining water content or thermogravimetric analysis (TGA). All percentages herein are by weight unless otherwise indicated. As used herein, the term “monohydrate” when used in reference to Rosiglitazone hydrobromide describes Rosiglitazone hydrobromide having water content of between about 3.9-4.1% w/w. As used herein, the term “hemi-hydrate” when used in reference to Rosiglitazone hydrobromide describes Rosiglitazone hydrobromide having a water content of about 1.8-2.1% w/w. As used herein, the term “quarter-hydrate” when used in reference to Rosiglitazone hydrobromide describes Rosiglitazone hydrobromide having a water content of about 0.7-1.0% w/w.
Water content was determined by Karl Fisher analysis using Mettler Toledo DL 38 Karl Fisher Titrator.

Data set [3] in a line: Weight loss on drying measured by TGA. Type of data set: physicochemical. The following applies: for Weight loss, as measured by TGA: general statement in description, hydrobromide. The method, then:
TGA analysis was preformed using Mettler 3M with Mettler TG 50 thermobalance. The weight of the samples was about 10 mg; the samples were scanned at a rate of 10° C./min from 25° C. to 200 or 250° C. The oven was constantly purged with nitrogen gas at a flow rate of 40 ml/min. Standard alumina crucibles covered by lids with 1 hole were used.

For data set [4] the following is noted: relative humidity 100%.
A short description of data set [5]: Polymorphic stability of Form I in compacted tablet with excipients. The conditions noted are these: compacted with lactose monohydrate, sucrose and avicel. Type of data set: physicochemical. From the text: Solid pharmaceutical compositions of Form I and the following excipients were compacted into a dosage form like a tablet: lactose monohydrate, sucrose and avicel. The polymorphic stability of Rosiglitazone form I in such tablet was examined and determined to be stable.

[6] abbreviates: 0 % RH, room temperature, 7 days.
The mark [7] stands for this setting: 100 % RH, room temperature, 7 days.
Where [8] appears, read: listed as Rosiglitazone hydrobromide Form I.
Setting [9] is: listed as Rosiglitazone hydrobromide Form II.

Turning to `CN(CCOc1ccc(CC2SC(=O)NC2=O)cc1)c1ccccn1` (centres unmarked) [Form I, Rosiglitazone hydrobromide], in data set [1] (80° C. for 30 minutes), the “Stability under extreme heating conditions” value is “stable”. The “Stability under high pressure and grinding conditions” value in data set [1] (high pressure and grinding) is given as “stable”. Also, the KF (water content) came to 1% in data set [2] (setting [6]), 4.1% in data set [2] (setting [7]) and 4.1% in data set [2] (As is). In addition, the “Water content, as measured by KF” value in data set [2] (setting [8]) was 1.0-4.1 % by weight. The Water content entry was “about 1%” in data set [2] (relative humidity of about 0%, corresponds to a quarter-hydrate) and “about 2%” in data set [2] (relative humidity of about 50%, corresponds to a hemihydrate). The “Hydrate obtained on maintaining at relative humidity” value in data set [2] (relative humidity of about 100%) is “a monohydrate is obtained”. For the same molecule, the results for the “TGA (weight loss on drying)” value in data set [3] (setting [6]), in data set [3] (setting [7]) and in data set [3] (As is) were 0.7, 3.9 and 4.1, respectively. The “Weight loss, as measured by TGA” value in data set [3] (setting [8]) is listed as 0.7-4.1 % by weight. Also, the “Stability under extreme relative humidity conditions” value in data set [4] is reported as “stable”. Moreover, the “Polymorphic stability in tablet” value in data set [5] was “stable”.
`CN(CCOc1ccc(CC2SC(=O)NC2=O)cc1)c1ccccn1` (centres unmarked) [Form II, Rosiglitazone hydrobromide]: the “Water content, as measured by KF” value in data set [2] (setting [9]) is on record as “about 4.1 % by weight”. For the same molecule, the “Weight loss, as measured by TGA” value in data set [3] (setting [9]) was “about 3.9 % by weight”.
